The text below walks through data of patent US20240287138A1, “CYCLIC PEPTIDES FOR INHIBITING TNF RECEPTOR 1 ACTIVITY” (Merck Sharp & Dohme LLC, priority 2023, published 2024).

Numbered stars: 1 amine (or outer) side, 2 acyl side, 3 side chain; on linkers, the order of the positions; unused ones are H or OH. Bridge positions count the residues as written; N and C are the ends. Square brackets hold non-standard residues; d marks the D form. Peptide text beside a SMILES is read from it. Phe(4-(4-Ac-piperazinyl)) = CC(=O)N1CCN(c2ccc(C[C@H](N)C(=O)O)cc2)CC1; Trp(βS-Me,7-OMe) = COc1cccc2c([C@H](C)[C@H](N)C(=O)O)c[nH]c12; Phe(2-F,4-COOH) = N[C@@H](Cc1ccc(C(=O)O)cc1F)C(=O)O; Phe(4-CH2COOH) = N[C@@H](Cc1ccc(CC(=O)O)cc1)C(=O)O; Acbc(cis-1,3) = O=C([C@H]1C[C@@H](N[*:1])C1)[*:2]; Trp(7-Cl) = N[C@@H](Cc1c[nH]c2c(Cl)cccc12)C(=O)O; Ala(pyrimidin-5-yl) = N[C@@H](Cc1cncnc1)C(=O)O; Phe(4-CONH2) = NC(=O)c1ccc(C[C@H](N)C(=O)O)cc1; Phe(4-COOH) = N[C@@H](Cc1ccc(C(=O)O)cc1)C(=O)O; Ala(4-Pyridazinyl) = N[C@@H](Cc1ccnnc1)C(=O)O; Trp(7-aza) = N[C@@H](Cc1c[nH]c2ncccc12)C(=O)O; 3Pal(6-OMe) = COc1ccc(C[C@H](N)C(=O)O)cn1; X41 = O=C([C@@H]1C[C@H](O)CCN1[*:1])[*:2]; Pip(5R-OH) = O=C(O)[C@@H]1CC[C@@H](O)CN1; X1 = O=C([C@@H]1CC[C@H](N[*:1])C1)[*:2]; Pip(4-aza) = O=C(O)[C@@H]1CNCCN1; 4Pal = N[C@@H](Cc1ccncc1)C(=O)O; NMeE = CN[C@@H](CCC(=O)O)C(=O)O; dHyp = O=C(O)[C@H]1C[C@H](O)CN1; d(αMeP) = C[C@]1(C(=O)O)CCCN1; αMeS = C[C@](N)(CO)C(=O)O; Nle = CCCC[C@H](N)C(=O)O; Sar = CNCC(=O)O

The target in this assay is T1, TNFα-induced NF-κB signal transduction pathway (TNFR1 signaling) in THP-1 cells (Homo sapiens, UniProt P19438).
T1 sequence (P19438 30-455): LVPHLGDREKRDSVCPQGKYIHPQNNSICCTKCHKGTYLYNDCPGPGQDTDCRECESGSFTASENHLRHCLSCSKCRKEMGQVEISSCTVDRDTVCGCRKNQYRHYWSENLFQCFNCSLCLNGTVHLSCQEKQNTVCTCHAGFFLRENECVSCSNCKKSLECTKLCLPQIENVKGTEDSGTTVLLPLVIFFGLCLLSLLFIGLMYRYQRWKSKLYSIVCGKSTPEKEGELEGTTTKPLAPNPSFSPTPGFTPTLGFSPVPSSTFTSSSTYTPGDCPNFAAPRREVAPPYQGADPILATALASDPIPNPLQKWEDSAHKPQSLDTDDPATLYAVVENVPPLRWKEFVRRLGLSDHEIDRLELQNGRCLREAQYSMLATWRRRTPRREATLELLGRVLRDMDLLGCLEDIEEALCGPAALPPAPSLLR
Briefly: THP-1 Lucia NF-κB reporter cell assay, inhibition of TNFα-induced NF-κB signaling. Type of assay: cell-based. The following applies: THP-1 NF-κB Lucia reporter cells, 10 ng/mL TNFα, 16-18 h, secreted luciferase; read-out: THP-1 IC50. As for the experimental part: C. Procedure for THP-1 Lucia NF-κB cells
The inhibition of TNFα-induced NF-κB signal transduction pathways was evaluated in THP-1 cells. THP-1 cells harboring NF-κB-inducible Lucia™ reporter gene (InvivoGen, cat. #thp1-nfkb) designed for monitoring NF-κB signal transduction pathway was employed to assess the inhibitory effect macrocyclic peptides on TNFR1 signaling. The cells were cultured in media containing RPMI 1640, 2 mM L-glutamine, 25 mM HEPES, 10% heat-inactivated fetal bovine serum with appropriate selection antibiotics. Assays were performed in media that was devoid of selection antibiotics. For profiling, 125 nL of peptides in DMSO (10 mM) were dispensed into Falcon® 384-well Optilux white/clear flat bottom TC-treated microtest microplate (Corning, cat. #353963) using Echo® 555. […] A suspension of 1 million cells/mL was dispensed at 20 μL/well in a 384-well plate to a density of 20,000 cells/well and pre-incubated with peptides at 37° C. for 1 h. Subsequently, 5 μL of TNF containing media (recombinant human TNFα; R&D Systems USA, cat. #210-TA-005/CF) or TNF-free media (for controls) was added to the wells. The final concentration of TNFα in the assay in 10 ng/mL. After o.n. incubation at 37° C. (16-18 h), 5 μL of supernatant was aspirated and transferred to a 384-well microplate (PerkinElmer, cat. #6007680) for measurement of secreted luciferase activity with 25 μL of QUANTI-Luc™ luminescence assay reagent (InvivoGen, cat. #rep-qlc1) in each well. The luminescence was measured in EnVision® Multimode Plate Reader (PerkinElmer). Dose response curves were analyzed using a 4-parameter logistic model to calculate IC50 values, reported in Table 2, using TIBCO® Spotfire® software employing appropriate Minimum and Maximum controls.
Turning to `CCCC[C@@H]1NC(=O)[C@@H]2CC[C@@H](C2)NC(=O)[C@H]([C@@H](C)c2c[nH]c3c(OC)cccc23)NC(=O)CN(C)C(=O)[C@H](Cc2ccc(N3CCN(C(C)=O)CC3)cc2)NC(=O)[C@H](Cc2ccc(C(=O)O)cc2)NC(=O)[C@](C)(CO)NC(=O)[C@H](Cc2c[nH]c3c(Cl)cccc23)NC(=O)[C@H](Cc2ccncc2)NC(=O)[C@H](CC(N)=O)NC(=O)[C@H](CCC(=O)O)N(C)C(=O)[C@H](Cc2c[nH]c3ccccc23)NC(=O)[C@@H]2CNCCN2C(=O)[C@H](Cc2ccncc2)NC1=O` [SEQ ID NO. 63] (cyclo([4Pal][Trp(7-Cl)][αMeS][Phe(4-COOH)][Phe(4-(4-Ac-piperazinyl))][Sar][Trp(βS-Me,7-OMe)][X1][Nle][4Pal][Pip(4-aza)]W[NMeE]N)), the concentration for half-maximal inhibition (IC50) (as a rule, the concentration at which inhibition is half-maximal) is 1.2 nM.

`CCCC[C@@H]1NC(=O)CSC[C@@H](C(N)=O)NC(=O)[C@H]([C@@H](C)c2c[nH]c3c(OC)cccc23)NC(=O)CN(C)C(=O)[C@H](Cc2ccc(O)cc2)NC(=O)[C@H](Cc2ccc(C(=O)O)cc2)NC(=O)[C@](C)(CO)NC(=O)[C@H](Cc2c[nH]c3c(Cl)cccc23)NC(=O)[C@H](Cc2ccncc2)NC(=O)[C@H](CC(N)=O)NC(=O)[C@H](CCC(=O)O)N(C)C(=O)[C@H](Cc2c[nH]c3ncccc23)NC(=O)[C@@H]2CNCCN2C(=O)[C@H](Cc2cncnc2)NC1=O` [SEQ ID NO. 65] ({CH2CO}-[Nle][Ala(pyrimidin-5-yl)][Pip(4-aza)][Trp(7-aza)][NMeE]N[4Pal][Trp(7-Cl)][αMeS][Phe(4-COOH)]Y[Sar][Trp(βS-Me,7-OMe)]C-NH2; thioether N-14): the IC50 was 4 nM.

For `CCCC[C@@H]1NC(=O)[C@H]2C[C@H](C2)NC(=O)[C@H]([C@@H](C)c2c[nH]c3c(OC)cccc23)NC(=O)CN(C)C(=O)[C@H](Cc2ccc(O)cc2)NC(=O)[C@H](Cc2ccc(C(=O)O)cc2)NC(=O)[C@](C)(CO)NC(=O)[C@H](Cc2c[nH]c3c(Cl)cccc23)NC(=O)[C@H](Cc2ccncc2)NC(=O)[C@H](CC(N)=O)NC(=O)[C@H](CCC(=O)O)N(C)C(=O)[C@H](Cc2c[nH]c3ccccc23)NC(=O)[C@@H]2CNCCN2C(=O)[C@H](Cc2ccncc2)NC1=O` [SEQ ID NO. 69] (cyclo([4Pal][Trp(7-Cl)][αMeS][Phe(4-COOH)]Y[Sar][Trp(βS-Me,7-OMe)][Acbc(cis-1,3)][Nle][4Pal][Pip(4-aza)]W[NMeE]N)), the IC50 worked out at 1.6 nM.

For `CCCC[C@@H]1NC(=O)CSC[C@@H](C(N)=O)NC(=O)[C@H]([C@@H](C)c2c[nH]c3c(OC)cccc23)NC(=O)CN(C)C(=O)[C@H](Cc2ccc(O)cc2)NC(=O)[C@H](Cc2ccc(C(=O)O)cc2)NC(=O)[C@](C)(CO)NC(=O)[C@H](Cc2c[nH]c3c(Cl)cccc23)NC(=O)[C@H](Cc2ccncc2)NC(=O)[C@H](CC(N)=O)NC(=O)[C@H](CCC(=O)O)N(C)C(=O)[C@H](Cc2c[nH]c3ccccc23)NC(=O)[C@@H]2C[C@H](O)CCN2C(=O)[C@H](Cc2ccncc2)NC1=O` [SEQ ID NO. 71] ({CH2CO}-[Nle][4Pal][X41]W[NMeE]N[4Pal][Trp(7-Cl)][αMeS][Phe(4-COOH)]Y[Sar][Trp(βS-Me,7-OMe)]C-NH2; thioether N-14), the concentration for half-maximal inhibition (IC50) was found to be 2.8 nM.

With `CCCC[C@@H]1NC(=O)CSC[C@@H](C(N)=O)NC(=O)[C@H]([C@@H](C)c2c[nH]c3c(OC)cccc23)NC(=O)CN(C)C(=O)[C@H](Cc2ccc(O)cc2)NC(=O)[C@H](Cc2ccc(C(=O)O)cc2)NC(=O)[C@](C)(CO)NC(=O)[C@H](Cc2c[nH]c3c(Cl)cccc23)NC(=O)[C@H](Cc2ccncc2)NC(=O)[C@H](CCC(=O)N(C)C)NC(=O)[C@H](CCC(=O)O)N(C)C(=O)[C@H](Cc2c[nH]c3ccccc23)NC(=O)[C@@H]2CNCCN2C(=O)[C@H](Cc2ccncc2)NC1=O` [SEQ ID NO. 75] ({CH2CO}-[Nle][4Pal][Pip(4-aza)]W[NMeE]E(NMe2)[4Pal][Trp(7-Cl)][αMeS][Phe(4-COOH)]Y[Sar][Trp(βS-Me,7-OMe)]C-NH2; thioether N-14), the 50% inhibitory concentration (IC50) was 6.1 nM.

`CCCC[C@@H]1NC(=O)CSC[C@@H](C(N)=O)NC(=O)[C@H]([C@@H](C)c2c[nH]c3c(OC)cccc23)NC(=O)CN(C)C(=O)[C@H](Cc2ccc(O)cc2)NC(=O)[C@H](Cc2ccc(C(=O)O)cc2)NC(=O)[C@](C)(CO)NC(=O)[C@H](Cc2c[nH]c3c(Cl)cccc23)NC(=O)[C@H](Cc2ccncc2)NC(=O)[C@H](CC(N)=O)NC(=O)[C@@]2(C)CCCN2C(=O)[C@H](Cc2c[nH]c3ccccc23)NC(=O)[C@@H]2CNCCN2C(=O)[C@H](Cc2ccncc2)NC1=O` [SEQ ID NO. 76] ({CH2CO}-[Nle][4Pal][Pip(4-aza)]W[d(αMeP)]N[4Pal][Trp(7-Cl)][αMeS][Phe(4-COOH)]Y[Sar][Trp(βS-Me,7-OMe)]C-NH2; thioether N-14): the IC50 stood at 4.7 nM.

In the case of `CCCC[C@@H]1NC(=O)[C@@H]2CC[C@@H](C2)NC(=O)[C@H]([C@@H](C)c2c[nH]c3c(OC)cccc23)NC(=O)CN(C)C(=O)[C@H](Cc2ccc(O)cc2)NC(=O)[C@H](Cc2ccc(C(=O)O)cc2)NC(=O)[C@](C)(CO)NC(=O)[C@H](Cc2c[nH]c3c(Cl)cccc23)NC(=O)[C@H](Cc2ccc(OC)nc2)NC(=O)[C@H](CC(N)=O)NC(=O)[C@H](CCC(=O)O)N(C)C(=O)[C@H](Cc2c[nH]c3ccccc23)NC(=O)[C@@H]2CNCCN2C(=O)[C@H](Cc2ccncc2)NC1=O` [SEQ ID NO. 100] (cyclo([4Pal][Pip(4-aza)]W[NMeE]N[3Pal(6-OMe)][Trp(7-Cl)][αMeS][Phe(4-COOH)]Y[Sar][Trp(βS-Me,7-OMe)][X1][Nle])), the IC50 came out at 1.3 nM.

`CCCC[C@@H]1NC(=O)[C@@H]2CC[C@@H](C2)NC(=O)[C@H]([C@@H](C)c2c[nH]c3c(OC)cccc23)NC(=O)CN(C)C(=O)[C@H](Cc2ccc(C(=O)O)cc2)NC(=O)[C@H](Cc2ccc(C(N)=O)cc2)NC(=O)[C@](C)(CO)NC(=O)[C@H](Cc2c[nH]c3c(Cl)cccc23)NC(=O)[C@H](Cc2ccc(C(=O)O)cc2)NC(=O)[C@H](CC(N)=O)NC(=O)[C@H]2C[C@H](O)CN2C(=O)[C@H](Cc2c[nH]c3ccccc23)NC(=O)[C@@H]2CC[C@@H](O)CN2C(=O)[C@H](Cc2ccnnc2)NC1=O` [SEQ ID NO. 105] (cyclo(N[Phe(4-COOH)][Trp(7-Cl)][αMeS][Phe(4-CONH2)][Phe(4-COOH)][Sar][Trp(βS-Me,7-OMe)][X1][Nle][Ala(4-Pyridazinyl)][Pip(5R-OH)]W[dHyp])): the IC50 came to 0.7 nM.

`CCCC[C@@H]1NC(=O)[C@@H]2CC[C@@H](C2)NC(=O)[C@H]([C@@H](C)c2c[nH]c3c(OC)cccc23)NC(=O)CN(C)C(=O)[C@H](Cc2ccc(O)cc2)NC(=O)[C@H](Cc2ccc(C(=O)O)cc2)NC(=O)[C@](C)(CO)NC(=O)[C@H](Cc2c[nH]c3c(Cl)cccc23)NC(=O)[C@H](Cc2ccc(C(=O)O)cc2F)NC(=O)[C@H](CC(N)=O)NC(=O)[C@H](CCC(=O)O)N(C)C(=O)[C@H](Cc2c[nH]c3ccccc23)NC(=O)[C@@H]2CNCCN2C(=O)[C@H](Cc2ccncc2)NC1=O` [SEQ ID NO. 108] (cyclo([4Pal][Pip(4-aza)]W[NMeE]N[Phe(2-F,4-COOH)][Trp(7-Cl)][αMeS][Phe(4-COOH)]Y[Sar][Trp(βS-Me,7-OMe)][X1][Nle])): the IC50 is 1.2 nM.

As for `CCCC[C@@H]1NC(=O)[C@@H]2CC[C@@H](C2)NC(=O)[C@H]([C@@H](C)c2c[nH]c3c(OC)cccc23)NC(=O)CN(C)C(=O)[C@H](Cc2ccc(O)cc2)NC(=O)[C@H](Cc2ccc(CC(=O)O)cc2)NC(=O)[C@](C)(CO)NC(=O)[C@H](Cc2c[nH]c3c(Cl)cccc23)NC(=O)[C@H](Cc2ccncc2)NC(=O)[C@H](CC(N)=O)NC(=O)[C@H](CCC(=O)O)N(C)C(=O)[C@H](Cc2c[nH]c3ccccc23)NC(=O)[C@@H]2CNCCN2C(=O)[C@H](Cc2ccncc2)NC1=O` [SEQ ID NO. 111] (cyclo([4Pal][Trp(7-Cl)][αMeS][Phe(4-CH2COOH)]Y[Sar][Trp(βS-Me,7-OMe)][X1][Nle][4Pal][Pip(4-aza)]W[NMeE]N)), the half-inhibitory concentration (IC50) came to 1.6 nM.
